Test results published in patent US9181588B2, “Methods of treating breast cancer with taxane therapy” (The University of Utah Research Foundation, priority 2011, dated 2015).

Test system: node-positive breast cancers
Experiment: GEICAM/9906 randomized phase III adjuvant trial, FEC versus FEC-P: overall and disease-free survival, by PAM50 proliferation score
Format: in vivo, human
Conditions: FEC-P vs. FEC; lowest quartile of 11-gene proliferation score
Method: The primary endpoint of the […]/9906 clinical trial was disease-free survival. Secondary endpoints were: (a) overall survival; (b) prognostic and predictive value of molecular/genomic markers and (c) safety. The study was performed in accordance with the Declaration of Helsinki, approved by the ethics committees at all participating institutions and the Spanish Health Authority, and it was registered at www.clinicaltrials.gov (identifier code: NCT00129922). All patients provided written informed consent for therapy randomization and molecular analyses. […] Samples were gene expression profiled using the previously described RT-qPCR assay and analyzed using the clinical algorithm for subtype prediction (Parker et al., J Clin Oncol 27:1160-1167, 2009; Amp Laboratories: PAM50 Breast Cancer Intrinsic Classifier Information. at the World Wide Web (www) aruplab.com/Lab-Tests/General-Oncology/PAM50/index.jsp). […] In addition to the subtype classification, a PAM50proliferation score was calculated using the previously described 11-gene signature (BIRC5, CCNB1, CDC20, CDCA1, CEP55, KNTC2, MKI67, PTTG1, RRM2, TYMS, UBE2C) (Nielsen et al., Clin Cancer Res 16(21):5222-32, 2010). The significance of proliferation was evaluated using a classification into quartiles, and using the proliferation scores as a continuous variable. […]

CC(=O)O[C@H]1C(=O)[C@@]2(C)[C@H]([C@H](OC(=O)c3ccccc3)[C@]3(O)C[C@H](OC(=O)[C@H](O)[C@@H](NC(=O)c4ccccc4)c4ccccc4)C(C)=C1C3(C)C)[C@]1(OC(C)=O)CO[C@@H]1C[C@@H]2O [paclitaxel]
HR for OS, low proliferation score: 0.232
